Laboratory results reported in ChEMBL document CHEMBL4145608, “Dehydrodiconiferyl Alcohol Inhibits Osteoclast Differentiation and Ovariectomy-Induced Bone Loss through Acting as an Estrogen Receptor Agonist” (J Nat Prod, 2018).
Active and inactive are the calls of the source. The calls are words filed in the database; no cut-off is given here.

How the values were obtained:
[1] = biological target: T1, Estrogen receptor (Homo sapiens) (UniProt P03372); test: Agonist activity at estrogen receptor (unknown origin) expressed in mouse RAW264.7 cells after 6 hrs by luciferase reporter gene assay; assay type: cell-based
T1 sequence (whole entry): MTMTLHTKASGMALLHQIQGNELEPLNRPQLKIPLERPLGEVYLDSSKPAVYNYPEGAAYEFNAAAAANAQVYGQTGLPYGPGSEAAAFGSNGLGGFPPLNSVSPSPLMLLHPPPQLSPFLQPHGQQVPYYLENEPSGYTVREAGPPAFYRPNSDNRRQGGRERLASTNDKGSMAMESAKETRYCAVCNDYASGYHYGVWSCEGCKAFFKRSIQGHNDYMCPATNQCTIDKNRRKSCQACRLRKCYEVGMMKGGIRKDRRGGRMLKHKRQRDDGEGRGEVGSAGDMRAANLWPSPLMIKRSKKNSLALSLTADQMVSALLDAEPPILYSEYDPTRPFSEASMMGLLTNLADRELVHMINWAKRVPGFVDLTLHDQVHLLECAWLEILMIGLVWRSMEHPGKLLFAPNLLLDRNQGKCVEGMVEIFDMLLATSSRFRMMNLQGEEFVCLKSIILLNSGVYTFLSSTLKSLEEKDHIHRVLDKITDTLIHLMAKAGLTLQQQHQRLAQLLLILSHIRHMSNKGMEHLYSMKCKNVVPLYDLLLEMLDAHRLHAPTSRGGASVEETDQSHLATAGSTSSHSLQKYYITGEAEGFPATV

RAW264.7 [2] = test: Inhibition of RANKL-induced osteoclast differentiation in mouse RAW264.7 cells harboring ERalpha siRNA assessed as decrease in size of TRAP-positive multinucleated cells at 20 uM after 5 days by microscopy; assay type: functional, cell-based
RAW264.7 [3] = test: Inhibition of NF-kappaB/p38 MAPK signaling pathway in mouse RAW264.7 cells assessed as reduction in RANKL-induced cathepsin K mRNA level after 24 hrs by qRT-PCR method; assay type: cell-based
RAW264.7 [4] = test: Inhibition of RANKL-induced PKA phosphorylation in mouse RAW264.7 cells at 10 to 40 uM after 24 hrs by Western blot analysis; assay type: cell-based
RAW264.7 [5] = test: Inhibition of RANKL-induced osteoclast differentiation in mouse RAW264.7 cells assessed as decrease in number of TRAP-positive multinucleated cells after 5 days by microscopy; assay type: functional, cell-based
RAW264.7 [6] = test: Inhibition of RANKL-induced osteoclast differentiation in mouse RAW264.7 cells harboring AMPKalpha1 siRNA assessed as decrease in c-Fos mRNA level at 20 uM after 24 hrs by qRT-PCR method; assay type: functional, cell-based
RAW264.7 [7] = test: Cytotoxicity against mouse RANKL-treated RAW264.7 cells assessed as reduction in cell viability at 10 to 40 uM after 72 hrs by MTT assay; assay type: cell-based; conditions: raw264.7, 72 h
[8] = biological target: T2, MAP kinase p38 (Mus musculus) (UniProt P47811+O08911+Q9WUI1+Q9Z1B7); test: Inhibition of p38 MAPK signaling pathway in mouse RAW264.7 cells assessed as reduction in RANKL-induced p38 phosphorylation at 10 to 40 uM after 30 mins by Western blot method; assay type: cell-based
Mus musculus [9] = test: Anti-osteoporotic activity in Balb/c mouse assessed as decrease in OVX-induced trabecular bone surface in femur at 25 to 100 mg/kg, ip administered for 4 weeks daily by microcomputed tomography; assay type: functional, organism-based
Mus musculus [10] = test: Anti-osteoporotic activity in Balb/c mouse assessed as inhibition of OVX-mediated decrease in trabecular bone volume in femur at 25 to 100 mg/kg, ip administered for 4 weeks daily by microcomputed tomography; assay type: functional, organism-based
RAW264.7 [11] = test: Inhibition of RANKL-induced osteoclast differentiation in mouse RAW264.7 cells harboring ERbeta siRNA assessed as decrease in number of TRAP-positive multinucleated cells at 20 uM after 5 days by microscopy; assay type: functional, cell-based
RAW264.7 [12] = test: Inhibition of NF-kappaB signaling pathway in mouse RAW264.7 cells assessed as reduction in RANKL-induced Akt phosphorylation at 10 to 40 uM after 30 mins by Western blot method; assay type: cell-based
RAW264.7 [13] = test: Inhibition of RANKL-induced bone resorption in mouse RAW264.7 cells assessed as reduction in pit formation after 7 days by optical microscopy; assay type: functional, cell-based
Mus musculus [14] = test: Anti-osteoporotic activity in Balb/c mouse assessed as decrease in OVX-induced structure model index in femur at 25 to 100 mg/kg, ip administered for 4 weeks daily by microcomputed tomography; assay type: functional, organism-based
RAW264.7 [15] = test: Inhibition of RANKL-induced osteoclast differentiation in mouse RAW264.7 cells assessed as TRAP activity after 5 days in presence of CAMKKbeta inhibitor STO609; assay type: functional, cell-based
RAW264.7 [16] = test: Inhibition of RANKL-induced osteoclast differentiation in mouse RAW264.7 cells harboring ERalpha siRNA assessed as decrease in c-Fos mRNA level at 20 uM after 24 hrs by qRT-PCR method; assay type: functional, cell-based
Mus musculus [17] = test: Anti-osteoporotic activity in Balb/c mouse assessed as decrease in OVX-induced trabecular pattern factor in femur at 25 to 100 mg/kg, ip administered for 4 weeks daily by microcomputed tomography; assay type: functional, organism-based
RAW264.7 [18] = test: Inhibition of RANKL-induced osteoclast differentiation in mouse RAW264.7 cells harboring ERbeta siRNA assessed as decrease in c-Fos mRNA level at 20 uM after 24 hrs by qRT-PCR method; assay type: functional, cell-based
RAW264.7 [19] = test: Inhibition of NF-kappaB/p38 MAPK signaling pathway in mouse RAW264.7 cells assessed as reduction in RANKL-induced NFATc1 protein expression level after 24 hrs by Western blot method; assay type: cell-based
RAW264.7 [20] = test: Inhibition of RANKL-induced osteoclast differentiation in mouse RAW264.7 cells assessed as decrease in TRAP mRNA level at 20 uM after 24 hrs in presence of ERbeta antagonist PHTPP by qRT-PCR method; assay type: functional, cell-based
RAW264.7 [21] = test: Inhibition of RANKL-induced osteoclast differentiation in mouse RAW264.7 cells harboring AMPKalpha1 siRNA assessed as decrease in number of TRAP-positive multinucleated cells after 5 days by microscopy; assay type: functional, cell-based
RAW264.7 [22] = test: Inhibition of RANKL-induced osteoclast differentiation in mouse RAW264.7 cells assessed as decrease in size of TRAP-positive multinucleated cells at 20 uM after 5 days in presence of ERalpha antagonist MPP by microscopy; assay type: functional, cell-based
RAW264.7 [23] = test: Inhibition of RANKL-induced osteoclast differentiation in mouse RAW264.7 cells harboring ERbeta siRNA assessed as decrease in TRAP activity at 20 uM after 5 days by microscopy; assay type: functional, cell-based
[24] = biological target: T2, MAP kinase p38 (Mus musculus); test: Inhibition of p38 MAPK signaling pathway in mouse RAW264.7 cells assessed as reduction in RANKL-induced ERK phosphorylation at 10 to 40 uM after 30 mins by Western blot method; assay type: cell-based
[25] = biological target: 5'-AMP-activated protein kinase catalytic subunit alpha-1 (Mus musculus) (UniProt Q5EG47); test: Activation of AMPKalpha1 in mouse RAW264.7 cells assessed as increase in AMPK phosphorylation at 10 to 40 uM after 24 hrs by Western blot method; assay type: cell-based
RAW264.7 [26] = test: Inhibition of RANKL-induced osteoclast differentiation in mouse RAW264.7 cells assessed as decrease in TRAP activity at 10 to 40 uM after 5 days by microscopy; assay type: functional, cell-based

5'-AMP-activated protein kinase catalytic subunit alpha-1 (Mus musculus), sequence (Q5EG47 whole entry): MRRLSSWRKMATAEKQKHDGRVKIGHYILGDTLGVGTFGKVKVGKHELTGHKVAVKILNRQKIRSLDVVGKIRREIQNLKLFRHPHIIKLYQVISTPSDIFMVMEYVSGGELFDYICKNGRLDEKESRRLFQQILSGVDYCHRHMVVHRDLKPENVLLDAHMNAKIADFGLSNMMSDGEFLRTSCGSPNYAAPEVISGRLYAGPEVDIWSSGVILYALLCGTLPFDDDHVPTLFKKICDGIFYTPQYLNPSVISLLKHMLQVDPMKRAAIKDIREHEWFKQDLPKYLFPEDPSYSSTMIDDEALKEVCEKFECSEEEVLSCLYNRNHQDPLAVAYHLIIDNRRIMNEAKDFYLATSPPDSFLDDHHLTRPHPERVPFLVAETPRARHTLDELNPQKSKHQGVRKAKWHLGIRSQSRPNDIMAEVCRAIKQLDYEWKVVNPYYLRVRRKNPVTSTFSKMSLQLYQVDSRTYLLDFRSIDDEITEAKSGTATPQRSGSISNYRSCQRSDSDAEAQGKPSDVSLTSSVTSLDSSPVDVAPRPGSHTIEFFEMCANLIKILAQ

Structure (SMILES): COc1cc(C2Oc3c(OC)cc(/C=C/CO)cc3C2CO)ccc1O (stereo unspecified)
- Activity [1]: Active
- inhibition (RAW264.7 [2]): inactive
- inhibition (RAW264.7 [3]): Dose-dependent effect
- inhibition (RAW264.7 [4]): inactive
- inhibition (RAW264.7 [5]): Dose-dependent effect
- inhibition (RAW264.7 [6]): inactive
- Activity (RAW264.7 [7]): Non-Toxic
- inhibition [8]: Active
- Activity (Mus musculus [9]): Active
- inhibition (Mus musculus [10]): Active
- inhibition (RAW264.7 [11]): Active
- inhibition (RAW264.7 [12]): Active
- inhibition (RAW264.7 [13]): Dose-dependent effect
- Activity (Mus musculus [14]): Active
- inhibition (RAW264.7 [15]): Active
- inhibition (RAW264.7 [16]): inactive
- Activity (Mus musculus [17]): Active
- inhibition (RAW264.7 [18]): Active
- inhibition (RAW264.7 [19]): Dose-dependent effect
- inhibition (RAW264.7 [20]): Active
- inhibition (RAW264.7 [21]): inactive
- inhibition (RAW264.7 [22]): inactive
- inhibition (RAW264.7 [23]): Active
- inhibition [24]: inactive
- Activity [25]: Active
- inhibition (RAW264.7 [26]): Active
